Source: US12551532B2, “Long-acting amylin receptor agonists and uses thereof” (Eli Lilly and Company, priority 2021, dated 2026)
Starred links: 1 amine or outer side, 2 acyl side, 3 side chain; linkers in the order of their positions; H or OH if unused. Positions of bridges follow the written chain, without caps; N, C: chain ends. Non-standard residues stand in square brackets, D forms with d. Residues, ends and D or L forms follow the SMILES beside them. Groups on a side chain read outwards from the residue. *: point of attachment. C20 diacid = O=C(O)CCCCCCCCCCCCCCCCCCC(=O)*; γGlu = O=C(O)[C@H](CCC(=O)[*:2])N[*:1]; αMeF = C[C@](N)(Cc1ccccc1)C(=O)O; NMeD = CN[C@@H](CC(=O)O)C(=O)O; αMeL = CC(C)C[C@](C)(N)C(=O)O; Orn = NCCC[C@H](N)C(=O)O; CH2 = C([*:1])[*:2]

Experiments:
hAMY1R [1] = biological target: T1, hAMY1R (Homo sapiens, UniProt O60894+P30988); assay: hAMY1R competitive radioligand binding filter assay (125I-rAMY); settings: ± SE; membranes of hAMY1R overexpressing cells
T1 construct: expressed in transfected cells
T1 sequence (P30988 25-474): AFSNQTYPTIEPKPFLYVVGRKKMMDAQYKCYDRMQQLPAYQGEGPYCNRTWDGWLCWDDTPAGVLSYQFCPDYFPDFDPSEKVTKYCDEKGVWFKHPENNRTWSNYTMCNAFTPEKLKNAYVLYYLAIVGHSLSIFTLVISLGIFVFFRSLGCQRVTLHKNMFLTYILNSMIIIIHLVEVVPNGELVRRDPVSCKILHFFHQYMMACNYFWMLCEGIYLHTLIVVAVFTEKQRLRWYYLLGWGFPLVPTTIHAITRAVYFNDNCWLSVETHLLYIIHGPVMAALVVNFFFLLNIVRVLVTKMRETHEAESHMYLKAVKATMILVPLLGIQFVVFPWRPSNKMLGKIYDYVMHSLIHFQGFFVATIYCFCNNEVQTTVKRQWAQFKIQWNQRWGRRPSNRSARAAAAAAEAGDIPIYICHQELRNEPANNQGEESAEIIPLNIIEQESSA
T1 sequence (O60894 27-148 partner): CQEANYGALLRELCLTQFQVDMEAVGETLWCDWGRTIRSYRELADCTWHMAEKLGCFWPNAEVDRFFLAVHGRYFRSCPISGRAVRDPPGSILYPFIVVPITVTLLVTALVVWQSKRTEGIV
Method: The equilibrium dissociation constants (Kd) for the various receptor/radioligand interactions are determined from saturation binding analysis using the same reagents and buffers as described below for compound testing.
The receptor binding affinity (Ki) of rAMY, hCT, and hAMY agonist peptides are determined from a competitive radioligand binding filter assay. The assay buffer consists of (in mM) 50 HEPES, pH 7.1, 5 MgCl2, 5 KCl, 0.2% (w/v) bacitracin, 0.003% (w/v) saponin and is used to dilute radioligand and membrane preparation. Binding reactions are carried out in 0.1 mL total reaction volume in a polystyrene 96 deep-well assay block. […] Test compounds and non-specific binding (NSB—defined as 300 nM rAMY) are added to aliquots of radioactivity buffer. […] The binding reaction is initiated by the addition of 0.05 mL of 200 μg/mL hAMY1R diluted in assay buffer to the radioactivity. Assay blocks are gently vortexed, sealed with parafilm, and incubated at RT for approximately 20 hours. […] At the end of the incubation, bound ligand is separated from free by addition of an ice cold quench buffer consisting of 100 mM NaCl, 50 mM TRIS-HCl pH 7.1 and immediately collected over the filter mat by vacuum filtration with a TomTec 96 well filter harvester using the following filter protocol (Dry time, 7; Cycle 3 repeat, 0; Wash Time, 1; Soak Time, 1; 1st Aspirate Time, 4; Wash/Aspirate Time, 7; 2nd Aspirate, 4; air pressure 2 PSI).

human dendritic cells = type: cell-based
Method: MAPPS profiles the MHC-II presented peptides on human dendritic cells treated with tested molecules. CD14+ cells, isolated from the PBMCs of normal human donors, are cultured and differentiated into immature DCs by incubation with IL-4 and GM-CSF. On day 4, culture media is replaced with fresh media containing tested molecules. On day 5, LPS is added to transform the cells into mature DCs. On day 6, cells are lysed in RIPA buffer with protease inhibitors. Immunoprecipitation of MHC-II complexes are performed using biotinylated anti-MHC-II antibody coupled to streptavidin beads. The bound complex is eluted and filtered. The isolated MHC-II peptides are analyzed by a mass spectrometer. Peptide identifications are generated by an internal proteomics pipeline using search algorithms with no enzyme and a bovine/human database with test sequences appended to the database. A KNIME workflow is used to process the identification files from the samples. Peptides identified from the test articles are aligned against the parent sequence of the test molecule. The output is used to determine the percentage of donors displaying MHC-II peptides from regions of the test molecule. Compound II, Compound IV, Compound VI, Compound VIII, a compound representative of U.S. Pat. No. 9,023,789 (hereinafter “Compound '789”), and Pramlintide are tested in the MAPPs assay.

CD4+ T cells = assay: T cell proliferation assay; settings: 7-10 donors with diverse MHC
Method: This assay assesses the ability of tested antibodies or tested MAPPS peptides to activate CD4+ T cells by inducing cellular proliferation. CD8+ T cell depleted PBMC's are prepared and labeled with CFSE. Each sample is tested with media control, keyhole limpet haemocyanin (KLH; positive clinical benchmark control), tested antibodies, or tested MAPPS peptides. Cultures are incubated for 7 days. On day 7, samples are analyzed by flow cytometry.

hAMY1R [2] = biological target: T1, hAMY1R; assay: hAMY1R cAMP functional activity (HTRF); type: cell-based; settings: ±SE; UMUC3 cells overexpressing hAMY1R; relative EC50
Outline: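 UMUC3 cells expressing hCTR plus transfected human RAMP1 (AMY1R) were treated with peptide in a 1:3 dilution series at 1500 cells/well for 1 h at room temperature. Intracellular cAMP was measured by HTRF after 60 min lysis-detection and converted to pmol/well against a standard curve for each run.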

[3] = Food intake and body weight in normal rats, single SC dose; type: in vivo, Sprague Dawley rats; settings: for Δ Body Weight: 96 hours post dose vs initial weights; for Cumulative Food Intake Change vs Vehicle: 96 hours post dose vs vehicle
Method: Male Sprague Dawley rats from Envigo RMS (Indianapolis, IN) are maintained on a chow diet (2014; Teklad Global, Envigo RMS, Indianapolis, IN) and single housed in a temperature-controlled facility (72.0° F.; 22.2° C.) with a reversed 12:12-hour light cycle (10 AM OFF) and free access to food and water. At 10 weeks of age, non-fasted body weights and initial food weights are recorded, and animals are administered a single subcutaneous injection (SC) of vehicle or acylated peptide (1 mL/kg), followed by daily measurements of body weight and food intake for 4 days post dose. Area under the curve analysis (AUC) is calculated for both body weight and food intake versus vehicle.

CC[C@H](C)[C@H](NC(=O)[C@@H]1CCCN1C(=O)CNC(=O)[C@H](Cc1ccccc1)NC(=O)[C@H](CC(=O)O)N(C)C(=O)[C@H](CC(N)=O)NC(=O)[C@H](CO)NC(=O)[C@H](CO)NC(=O)[C@H](CCCNC(=N)N)NC(=O)[C@@H](NC(=O)[C@H](CC(C)C)NC(=O)[C@](C)(Cc1ccccc1)NC(=O)[C@H](CCC(=O)O)NC(=O)[C@H](C)NC(=O)[C@H](CC(C)C)NC(=O)[C@H](CCCN)NC(=O)CNC(=O)[C@@H](NC(=O)[C@H](C)NC(=O)[C@@H]1CSCSC[C@H](NC(=O)[C@@H](N)CCCCNC(=O)CC[C@H](NC(=O)CC[C@H](NC(=O)CCCCCCCCCCCCCCCCCCC(=O)O)C(=O)O)C(=O)O)C(=O)N[C@@H](CCC(=O)O)C(=O)N[C@@H]([C@@H](C)O)C(=O)N[C@@H](C)C(=O)N[C@@H]([C@@H](C)O)C(=O)N1)[C@@H](C)O)C(C)C)C(=O)N[C@@H](CC(C)C)C(=O)N1CCC[C@H]1C(=O)N1CCC[C@H]1C(=O)N[C@H](C(=O)N[C@@H](CCC(=O)O)C(=O)N[C@H](C(=O)NCC(=O)N[C@@H](CO)C(=O)N[C@@H](CC(N)=O)C(=O)N[C@H](C(=O)N[C@@H](Cc1ccc(O)cc1)C(N)=O)[C@@H](C)O)C(C)C)[C@@H](C)O [Compound VI, KCETATCATG-Orn-LAE-αMeF-LVRSSN-NMeD-FGPILPPTEVGSNTY-NH2] (H-K([γGlu-γGlu-C20 diacid])CETATCATG[Orn]LAE[αMeF]LVRSSN[NMeD]FGPILPPTEVGSNTY-NH2; linker 2-7 via CH2)
Ki (hAMY1R [1]): 0.0445 ± 0.0082 nM | MAPPS Assay donors displayed peptides (human dendritic cells): no peptides | MAPPS Assay immunogenicity risk (human dendritic cells): Low Risk | peptides displayed on MHC-II complexes (human dendritic cells): no peptides displayed on MHC-II complexes | T Cell Proliferation Assay: protein, immunogenicity risk (CD4+ T cells): Low Risk | T Cell Proliferation Assay: protein, positive donors (CD4+ T cells): (1/9 | EC50 (hAMY1R [2]): 0.107 ± 0.015 nM

CC[C@H](C)[C@H](NC(=O)[C@@H]1CCCN1C(=O)CNC(=O)[C@H](Cc1ccccc1)NC(=O)[C@H](CC(N)=O)NC(=O)[C@H](Cc1c[nH]cn1)NC(=O)[C@H](CO)NC(=O)[C@H](CO)NC(=O)[C@H](CCCNC(=N)N)NC(=O)[C@@H](NC(=O)[C@H](CC(C)C)NC(=O)[C@H](Cc1ccccc1)NC(=O)[C@H](CCC(=O)O)NC(=O)[C@H](C)NC(=O)[C@](C)(CC(C)C)NC(=O)[C@H](CCCN)NC(=O)CNC(=O)[C@@H](NC(=O)[C@H](C)NC(=O)[C@@H]1CSCSC[C@H](NC(=O)[C@@H](N)CCCCNC(=O)CC[C@H](NC(=O)CC[C@H](NC(=O)CCCCCCCCCCCCCCCCCCC(=O)O)C(=O)O)C(=O)O)C(=O)N[C@@H](CCC(=O)O)C(=O)N[C@@H]([C@@H](C)O)C(=O)N[C@@H](C)C(=O)N[C@@H]([C@@H](C)O)C(=O)N1)[C@@H](C)O)C(C)C)C(=O)N[C@@H](CC(C)C)C(=O)N1CCC[C@H]1C(=O)N1CCC[C@H]1C(=O)N[C@H](C(=O)N[C@@H](CCC(=O)O)C(=O)N[C@H](C(=O)NCC(=O)N[C@@H](CO)C(=O)N[C@@H](CC(N)=O)C(=O)N[C@H](C(=O)N[C@@H](Cc1ccc(O)cc1)C(N)=O)[C@@H](C)O)C(C)C)[C@@H](C)O [Compound VIII] (H-K([γGlu-γGlu-C20 diacid])CETATCATG[Orn][αMeL]AEFLVRSSHNFGPILPPTEVGSNTY-NH2; linker 2-7 via CH2)
Ki (hAMY1R [1]): 0.0435 ± 0.0072 nM | Δ Body Weight ([3]; 0.1 nmol/kg SC single dose): 2.0% | Cumulative Food Intake Change vs Vehicle ([3]; 0.1 nmol/kg SC single dose): 1.3% | Δ Body Weight ([3]; 0.3 nmol/kg SC single dose): 1.6% | Cumulative Food Intake Change vs Vehicle ([3]; 0.3 nmol/kg SC single dose): 3.2% | Δ Body Weight ([3]; 1 nmol/kg SC single dose): −1.0% | Cumulative Food Intake Change vs Vehicle ([3]; 1 nmol/kg SC single dose): −17.5% | Δ Body Weight ([3]; 3 nmol/kg SC single dose): −3.9% | Cumulative Food Intake Change vs Vehicle ([3]; 3 nmol/kg SC single dose): −37.7% | Δ Body Weight ([3]; 10 nmol/kg SC single dose): −7.2% | Cumulative Food Intake Change vs Vehicle ([3]; 10 nmol/kg SC single dose): −58.5% | Δ Body Weight ([3]; 30 nmol/kg SC single dose): −10.8% | Cumulative Food Intake Change vs Vehicle ([3]; 30 nmol/kg SC single dose): −67.0% | Δ Body Weight ([3]; 100 nmol/kg SC single dose): −13.8% | Cumulative Food Intake Change vs Vehicle ([3]; 100 nmol/kg SC single dose): −75.2% | Δ Body Weight ([3]; 300 nmol/kg SC single dose): −13.6% | Cumulative Food Intake Change vs Vehicle ([3]; 300 nmol/kg SC single dose): −74.9% | Δ Body Weight ([3]; 1000 nmol/kg SC single dose): −18.9% | Cumulative Food Intake Change vs Vehicle ([3]; 1000 nmol/kg SC single dose): −84.7% | MAPPS Assay donors displayed peptides (human dendritic cells): no peptides | MAPPS Assay immunogenicity risk (human dendritic cells): Low Risk | peptides displayed on MHC-II complexes (human dendritic cells): no peptides displayed on MHC-II complexes | T Cell Proliferation Assay: protein, immunogenicity risk (CD4+ T cells): Low Risk | T Cell Proliferation Assay: protein, positive donors (CD4+ T cells): (1/9 | EC50 (hAMY1R [2]): 0.107 ± 0.02 nM
